pIC50: −log10 of the molar value. Like-named read-outs stand apart in the source and are kept apart here.
Experiments:
STING pathway = experiment: IFN β reporter assay (HTRF, 2′3′-cGAMP-stimulated THP1 cells); type: cell-based, human; conditions: Homo sapiens
Protocol: STING pathway deactivation by the compounds described herein was measured using THP1 cells. The THP1 Cells (obtained from ATCC, Cat #TIB-202) were maintained in RPMI-1640 (Gibco, Cat #22400105), 10% FBS, 1% Pen-Strep, 0.05 mM 2-mercaptoethanol. For STING activation, 2′3′-cGAMP (MW 718.38, obtained from Invivogen) was used and prepared in serum-free RPMI-1640 media. Growth media: RPMI-1640 (HEPES, glutamine), 10% FBS, 1% Pen-Strep, 0.05 mM 2-mercaptoethanol. Assay media: RPMI-1640 (HEPES, glutamine), 0.5% FBS. 2′3′-cGAMP: Dissolve 2′3′-cGAMP to 10 mM stock in H2O.
The cells were prepared and seeded at 100K, 90 μL/well with assay media in cell culture plate (Greiner 655180). The compounds were added in 96-well tissue culture plates by Tecan D300e for a final concentration of 0.00137-3 μM.
Lipo2000/3000 and 2′3′-cGAMP stock solutions were diluted respectively in serum-free RPMI-1640 media. The diluted 2′3′-cGAMP and Lipo (V/V=1:1) were mixed and stood for 15 min at room temperature. 10 μL 2,3-cGAMP/Lipofectamine (10×) was transferred to the 96-well assay plate with a final 2′3′-cGAMP concentration of 5 μM. The cell plates were centrifuged at 1000 rpm for 5 min after incubating at 37° C., 5% CO2 overnight.
All reagents (human IFN beta kit, Cisbio 62HIFNBPEG) were warmed to room temperature for at least 30 min before the assay. The instructions of the kit were followed to prepare the detection media. 14 μL of cell supernatants was transferred into their dedicated wells in 384-well plate. Then 2 μL of the activation reagent solution and 4 μL of the mixed antibody solution were added to all wells. The plate was sealed and incubated for 3 h at room temperature.
The HTRF signal was read in Envision (PerkinElmer). IFN β reporter activity was then measured. The calculated ratio is the signal at 665 nm/signal at 615 nm. IC50 values are calculated by using standard methods known in the art.

Trex1−/− mice = conditions: given to Trex1−/− mice; cited from earlier work
[1] = THP-1, THP1 cells, 5 μM 2′3′-cGAMP, IFN β secretion inhibition, class symbols, read-out: IFN β reporter activity IC50
[2] = THP-1, read-out: IFN β reporter activity IC50

SMILES | pIC50 (STING pathway; [1]) | other results
CN1CCC(c2ccc3c(C(=O)Nc4c[nH]c5ccc(F)cc45)cn(C)c3c2)CC1 [Example 118] | < 6.00 | –
Cn1cc(C(=O)Nc2c[nH]c3ccc(C#N)cc23)c2cc(Cl)c(C3=CCOCC3)cc21 [Example 55] | 6.70 to 7.30 | –
CN1CC=C(c2ccc3c(C(=O)Nc4c[nH]c5ccc(F)cc45)cn(C)c3c2)CC1 [Example 117] | – | pIC50 (STING pathway; [2]): < 6.00
O=C(Nc1c[nH]c2ccc(F)cc12)c1cn(C2CNC2)c2cc(C(F)(F)F)ccc12 [Example 113, 1-(azetidin-3-yl)-N-(5-fluoro-1H-indol-3-yl)-6-(trifluoromethyl)indole-3-carboxamide] | – | pIC50 (STING pathway; [2]): < 6.00
CN1CC=C(c2cc3c(cc2F)c(C(=O)Nc2c[nH]c4ccc(F)cc24)cn3C)CC1 [Example 115, 5-fluoro-N-(5-fluoro-1H-indol-3-yl)-1-methyl-6-(1-methyl-3,6-dihydro-2H-pyridin-4-yl)indole-3-carboxamide] | – | pIC50 (STING pathway; [2]): < 6.00
O=C(Nc1c[nH]c2ccc(F)cc12)c1n[nH]c2cc(C3=CCOCC3)ccc12 [Example 29] | 6.70 to 7.30 | –
Cn1cc(C(=O)Nc2c[nH]c3ccc(C#N)cc23)c2ccc(C(F)(F)F)cc21 [Example 36] | – | pIC50 (STING pathway; [2]): > 7.30
O=C(Nc1c[nH]c2ccc(F)cc12)c1n[nH]c2cc(C(F)(F)F)ccc12 [Example 8] | > 7.30 | –
O=C(Nc1c[nH]c2ccc(Br)cc12)c1n[nH]c2cc(C(F)(F)F)ccc12 [Example 15] | > 7.30 | –
COc1ccc2[nH]cc(NC(=O)c3cn(C)c4cc(C(F)(F)F)ccc34)c2c1 [Example 51] | – | pIC50 (STING pathway; [2]): 6.70 to 7.30
Cn1cc(NC(=O)c2cn(C)c3cc(C(F)(F)F)ccc23)c2cc(C#N)ccc21 [Comparator D, reference compound] | – | pIC50 (STING pathway; THP-1, THP1 cells, 5 μM 2′3′-cGAMP, IFN β secretion inhibition, numeric values (comparators), read-out: IFN β reporter activity IC50): 5.00
C[C@H]1COCCN1c1cc2c(cc1F)c(C(=O)Nc1c[nH]c3ccc(F)cc13)cn2C [Example 49] | 6.00 to 6.70 | –
O=C(Nc1c[nH]c2ccc(F)cc12)c1c[nH]c2cc(C(F)(F)F)ccc12 [Example 53] | > 7.30 | –
O=C(Nc1c[nH]c2ccc(F)cc12)c1cn([C@@H]2CCOC2)c2cc(C(F)(F)F)ccc12 [Example 76] | – | pIC50 (STING pathway; [2]): 6.00 to 6.70
CCN(CCO)CCCC(C)Nc1ccnc2cc(Cl)ccc12 (stereo not shown) [hydrochloroquine] | – | development of experimental autoimmune myocarditis (Trex1−/− mice): prevents
Cn1cc(C(=O)Nc2c[nH]c3ccc(F)cc23)c2ccc(C3=CCOCC3)cc21 [Example 72] | 6.70 to 7.30 | –

SMILES | pIC50 (STING pathway; [1]) | other results
O=C(Nc1c[nH]c2cc(F)c(F)cc12)c1cc2ccccc2[nH]1 [Example 65] | > 7.30 | –
O=C(Nc1c[nH]c2c(F)cccc12)c1n[nH]c2cc(C(F)(F)F)ccc12 [Example 6] | 6.00 to 6.70 | –
Cn1cc(C(=O)Nc2c[nH]c3ccc(S(C)(=O)=O)cc23)c2ccc(C(F)(F)F)cc21 [Example 37] | < 6.00 | –
O=C(Nc1c[nH]c2cc(F)c(F)cc12)c1n[nH]c2ncc(Br)cc12 [Example 68] | 6.70 to 7.30 | –
Cn1nc(C(=O)Nc2c[nH]c3ccccc23)c2ccc(Br)cc21 [Example 4] | – | pIC50 (STING pathway; [2]): 6.70 to 7.30
COC(=O)c1ccc2[nH]cc(NC(=O)c3cn(C)c4cc(C(F)(F)F)ccc34)c2c1 [Example 33] | 6.70 to 7.30 | –
CS(=O)(=O)c1ccc2c(C(=O)Nc3c[nH]c4ccc(F)cc34)n[nH]c2c1 [Example 13] | < 6.00 | –
Cn1cc(C(=O)Nc2c[nH]c3ccc(F)cc23)c2cc(F)c(CN3CCOCC3)cc21 [Example 95] | 6.00 to 6.70 | –
Cn1cc(C(=O)Nc2c[nH]c3ccc(F)cc23)c2cc(F)c(CNCCC(F)(F)F)cc21 [Example 97, 5-fluoro-N-(5-fluoro-1H-indol-3-yl)-1-methyl-6-[(3,3,3-trifluoropropylamino)methyl]indole-3-carboxamide] | 6.70 to 7.30 | –
O=C(Nc1c[nH]c2ccc(F)cc12)c1cnn2cc(C(F)(F)F)ccc12 [Example 66] | 6.00 to 6.70 | –
Cn1cc(C(=O)Nc2c[nH]c3ccc(C(=O)O)cc23)c2ccc(C(F)(F)F)cc21 [Example 87, 3-[[1-methyl-6-(trifluoromethyl)indole-3-carbonyl]amino]-1H-indole-5-carboxylic acid] | < 6.00 | –
O=C(Nc1c[nH]c2ccc(F)cc12)c1n[nH]c2cc(N3CCOCC3)ccc12 [Example 60, N-(5-fluoro-1H-indol-3-yl)-6-morpholino-1H-indazole-3-carboxamide] | 6.00 to 6.70 | –
Cc1[nH]c2ccc(F)cc2c1NC(=O)c1cn(C)c2cc(C(F)(F)F)ccc12 [Comparator C, reference compound] | – | pIC50 (STING pathway; [2]): 4.96
Cn1cc(C(=O)Nc2c[nH]c3ccc(F)cc23)c2ccc(OCC(F)(F)F)nc21 [Example 74] | 6.70 to 7.30 | –
O=C(Nc1c[nH]c2cccc(F)c12)c1n[nH]c2cc(C(F)(F)F)ccc12 [Example 26] | 6.70 to 7.30 | –
